Data taken from patent publication EP4656178A1, “COSMETIC USE OF ATRACTYLODES LANCEA ROOT EXTRACT” (Provital, S.A., priority 2024, dated 2025).

Key:
Assay type in all cases: cell-based
Human Dermal Fibroblasts = details: 6 h, 10 µM retinol or 0.05 mg/ml ALRE
Procedure: To better understand the cellular pathways and processes that were modulated by the ALRE in human dermal fibroblasts, and its relevance with respect to retinol, a comprehensive and comparative assessment of gene expression by transcriptome analysis was conducted.
Three biological triplicates of Human Dermal Fibroblasts (HDF; ZenBio Inc., Research Triangle Park, NC, USA) were stimulated for 6 h with either 10 µM retinol or 0.05 mg/ml ALRE. RNA was extracted with the TRIzol® Plus RNA Purification Kit, including DNase I treatment step, according to manufacturer's instructions. RNA quality and quantity were inspected by spectrophotometric measurement using a NanoDrop™ One spectrophotometer (Thermo Fisher Scientific, Pittsburgh, PA, USA).
Messenger RNA was purified from total RNA using poly-T oligo-attached magnetic beads. After fragmentation, the first strand cDNA was synthesized using random hexamer primers, followed by the second strand cDNA synthesis using either dUTP for directional library or dTTP for non-directional library. For the non-directional library, it was ready after end repair, A-tailing, adapter ligation, size selection, amplification, and purification. For the directional library, it was ready after end repair, A-tailing, adapter ligation, size selection, USER enzyme digestion, amplification, and purification . The library was checked with Qubit and real-time PCR for quantification and bioanalyzer for size distribution detection. Quantified libraries were pooled and sequenced (Paired-end 150 bp) on Illumina platforms, according to effective library concentration and data amount.
Obtained data were studied by bioinformatic analysis as disclosed, for example, in Liao et al, featureCounts: an efficient general purpose program for assigning sequence reads to genomic features, Bioinformatics, 2014 ,30(7), 923-30, Mortazavi et al., Mapping and quantifying mammalian transcriptomes by RNA-Seq, Nature Methods, 2008, 5(7), 621-628, and Robinson et al., edgeR: a Bioconductor package for differential expression analysis of digital gene expression data, Bioinformatics, 2010, 26(1), 139-140.
Genes involved in the following categories were studied: • 2.1.- Retinoid binding, metabolizing genes and lipid transport • 2.2.- Extracellular matrix • 2.3.- Inflammatory pathway

[1] = system: reconstructed human pigmented epidermis (RHPE); test: Depigmentation test: melanin quantification by imaging; details: daily application day 9 to day 17, in comparison with Control, read-out: melanin reduction
Procedure: The depigmenting potential of the ALRE was assessed on reconstructed human pigmented epidermis (RHPE). Said cells were specifically generated for screening depigmenting agents or skin lightening products prior to human in vivo testing, as disclosed in Hall et al., Reconstructed human pigmented skin/epidermis models achieve epidermal pigmentation through melanocore transfer, Pigment Cell Melanoma Res., 2022, 35, 425-435. On day 9, the medium was replaced with a daily renewal, incorporating test compounds: the ALRE at concentrations of 0.2, 0.1, and 0.05 mg/ml, comparing its effect with 10 µM Retinol. In this assessment, […] DMSO was used as a negative control and 250 µM Kojic acid as a positive control. Images for melanin evaluation were captured on day 17 using Leica EZ4 W stereo microscope (Leica Microsystems, Wetzlar, Germany) and quantified as follows: all imaging processing steps were performed with the imaging software Fiji/lmageJ v 1.52n (Schindelin et al., Fiji - an Open Source platform for biological image analysis, Nat. Methods, 2012, 9(7), doi:10-1038). […] Statistical differences were determined by two-way ANOVA using R version 4.3.2 (R: A Language and Environment for Statistical Computing, n.d.). […]

human TRPV1 channel = target: T1, human TRPV1 channel (Homo sapiens, UniProt Q8NER1); test: TRPV1 irritation test: intracellular calcium influx (Fluo4-NW) in TRPV1-overexpressing HEK cells; details: 1-hour incubation, normalized to 1 µM capsaicin (100%) and assay buffer (0%)
T1 construct: expressed in transfected cells
Description: In this TRPV1 test, compositions comprising different amounts of the A. lancea root extract (ALRE) were compared with retinol and tested on Human Embryonic Kidney (HEK) cells stably expressing this TRPV1 channel.
Cytosolic calcium influx was monitored using Fluo4-NW (Thermo Fisher Scientific) mix dye following manufacturer's instructions.
Activation of the TRPV1 receptor causes a Ca^+2 influx, and a direct relationship between fluorescence and TRPV1 receptor response can be established.
Fluorescence signal (AFU) was measured after excitation at 485 nm and emission at 520 nm using ClarioStar Plus microplate reader from BMG LABTECH.
The effect of tested compounds on intracellular Ca^+2 influx was studied 48 hours after cell seeding. The medium of TRPV1-overexpressing HEK cells was replaced by 90 µL/well of Fluo4-NW dye solution in assay buffer containing probenecid. […]
After 1 hour incubation at 37 °C, the plate was kept for 15 minutes at room temperature inside the fluorescence plate reader. After that, the program started with a stop in cycle 3 to add test compounds and capsazepine, 0.2% Triton X-100 (maximal signal control for dye loading) and assay buffer (minimal signal) and the fluorescence signal was recorded for 7 additional cycles. […] The signal was recorded until cycle 20. […]

[2] = vs non-treated human fibroblast

T1 sequence (Q8NER1 whole entry): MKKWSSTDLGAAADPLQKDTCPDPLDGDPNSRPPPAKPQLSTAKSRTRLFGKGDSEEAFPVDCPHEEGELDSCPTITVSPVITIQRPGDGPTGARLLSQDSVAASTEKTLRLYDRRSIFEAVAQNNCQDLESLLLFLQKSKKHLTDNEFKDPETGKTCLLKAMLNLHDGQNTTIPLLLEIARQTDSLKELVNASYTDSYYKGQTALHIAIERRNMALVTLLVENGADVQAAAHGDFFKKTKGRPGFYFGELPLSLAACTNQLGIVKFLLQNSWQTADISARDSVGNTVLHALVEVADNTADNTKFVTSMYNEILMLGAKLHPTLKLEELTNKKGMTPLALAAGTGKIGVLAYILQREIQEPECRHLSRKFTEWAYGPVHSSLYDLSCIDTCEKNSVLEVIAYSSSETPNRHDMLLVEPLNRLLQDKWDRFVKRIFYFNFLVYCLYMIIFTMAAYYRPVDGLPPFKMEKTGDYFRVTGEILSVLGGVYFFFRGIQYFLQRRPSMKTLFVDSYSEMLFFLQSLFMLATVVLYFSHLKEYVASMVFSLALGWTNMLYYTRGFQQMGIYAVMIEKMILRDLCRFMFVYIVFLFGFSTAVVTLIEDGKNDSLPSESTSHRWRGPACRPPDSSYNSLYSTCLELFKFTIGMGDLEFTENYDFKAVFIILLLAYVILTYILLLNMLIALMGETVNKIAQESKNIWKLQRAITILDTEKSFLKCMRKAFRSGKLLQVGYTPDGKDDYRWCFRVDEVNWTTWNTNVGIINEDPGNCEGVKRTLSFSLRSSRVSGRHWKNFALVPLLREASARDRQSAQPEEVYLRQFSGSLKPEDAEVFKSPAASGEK

| SMILES | MMP1 gene expression (Human Dermal Fibroblasts; [2]) | MMP12 gene expression (Human Dermal Fibroblasts; [2]) | TIMP1 gene expression (Human Dermal Fibroblasts; [2]) | TIMP3 gene expression (Human Dermal Fibroblasts; [2]) | gene expression associated with crucial ECM proteins (Human Dermal Fibroblasts; vs non-treated human fibroblast (100%)) | inhibition at 10 µM ([1]; 10 µM retinol) | intracellular calcium increase (human TRPV1 channel; retinol 50 µM) | intracellular calcium increase (human TRPV1 channel; retinol 100 µM) | inhibition at 250 µM ([1]; 250 µM kojic acid) |
| --- | --- | --- | --- | --- | --- | --- | --- | --- | --- |
| CC1=C(/C=C/C(C)=C/C=C/C(C)=C/CO)C(C)(C)CCC1 [retinol] | elevation | elevation | significantly upregulated | significantly upregulated | comparable modulation of gene expression | 76% | significant rise | significant rise | – |
| O=c1cc(CO)occ1O [kojic acid] | – | – | – | – | – | – | – | – | 58% |
